Reference: article PMC7531004, “Discovery of gramicidin A analogues with altered activities by multidimensional screening of a one-bead-one-compound library” (Nature Communications, 2020)
Where a SMILES comes first, the peptide text is derived from it. [ ]: non-standard residue; d: D form. The star is where a group is joined. NHCH2CH2OH = OCCN*; For = O=C*

Assays:
[1] = system: Streptococcus pyogenes SSI-9; experiment: Antibacterial activity assay of bead-derived peptides (three concentrations); assay type: cell-based; set-up: key: +++: inhibition by the 640-fold diluted peptide solution; ++: inhibition by the 160-fold diluted solution; +: inhibition by the 40-fold diluted solution; -: no inhibition; settings: S. pyogenes, bead-derived peptide solution, three concentrations
Experimental: (§1) Each type of assay must be simplified and miniaturized to assess the activities of the library peptides in a 96-well format for the high-throughput screening.
Next, the peptides in groups A and B were subjected to the antibacterial assay and structural determination. Three peptide concentrations were applied to evaluate the growth inhibition of S. pyogenes and determine the antibacterial activity. […] Finally, the structures of the peptides were determined. […]
Antibacterial activity assay of bead-derived peptides. The stock solution of the peptide library was 4- and […]
16-fold diluted with DMSO. The non-diluted stock solution, 4-fold diluted solution, and 16-fold diluted […]
solution were transferred to the 96-well round-bottom plate (3367, Corning, 1.0 µL/well). To the solution of […]
peptide in each well was added a suspension of Streptococcus pyogenes SSI-9 strain in cation adjusted […]
Mueller Hinton Broth [40.0 µL, 2 × 10^5 colony forming units (CFU), 21 g/L Mueller Hinton Broth (Difco), 50 […]
mg/L Ca2+ (adjusted with CaCl2•2H2O), and 25 mg/L Mg2+ (adjusted with MgCl2•6H2O)] supplemented with […]
5% laked horse blood (Nippon Biotest Laboratories). The plate was incubated at 37 °C for 18 h, and the precipitation of the grown cells was examined. […]

[2] = H+/Na+ transport assay of bead-derived peptides (one-point); assay type: biochemical; set-up: key: relative activity; mean of two control wells = 1.00; settings: bead-derived peptide solution, EYPC/EYPG LUVs;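 further: relative to parent gramicidin A activity set to 1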
Experimental: as §1
H+/Na+ transport assay of bead-derived peptides.1,2,3 Trisodium 8-hydroxypyrene-1,3,6-trisulfonate
mini-extruder apparatus (Avanti Polar Lipids).
28.9 µmol) in CHCl3 (225 µL) and egg yolk phosphatidylglycerol (1.20 mg, 1.56 µmol) in CHCl3 (60.0 µL)
The thin film was hydrated and
1.0 mM pyranine) by sonication.
A suspension of the LUVs was immediately
used for the H+/Na+ transport assay.
The diluted solution of peptide
flat-bottom 96-well plate (655086, Greiner bio-one).
was vortexed at room temperature for 30 min.
(5/95, 3.0 µL) and the LUV suspension were mixed in each plate to determine 100% lysis. The untreated
LUV suspension was used to determine 0% lysis.
normalized against 100% lysis by Triton X-100 (Imax) and 0% lysis (I0) as following, where Ix is the
fluorescence intensity (Supplementary Equation 2).
I = 100 × (Ix – I0) / (Imax – I0) (2)
The mean value of the two control wells was set to 1.00. […]

[3] = system: P388 mouse leukemia cells; settings: 92 h
Source text: Each type of assay must be simplified and miniaturized to assess the activities of the library peptides in a 96-well format for the high-throughput screening. […]
Mammalian cytotoxicity assay of bead-derived peptides . P388 cells were obtained from Institute of
Development Aging and Cancer (Tohoku University). The cells were maintained with growth medium
[RPMI1640 with phenol red ( Fujifilm Wako Pure Chemical) supplemented with 10% heat -inactivated fetal
bovine serum, pe nicillin G (100 units/mL), and streptomycin (100 µg/mL)] under atmosphere of 5% CO 2 at
The collected cells were resuspended into
the growth medium at 2 × 10^4 cells/mL. The stock solutions of the peptide library were 250-fold diluted
with the growth medium. Aliquots of the medium (100 µL) containing peptides and the latter medium
containing P388 cells (100 µL) were mixed in a 96-well cell culture plate (TR5003, TrueLine). The final
concentration of P388 cells was 1 × 10^4 cells/mL. After incubation under atmosphere of 5% CO2 at 37 °C
for 92 h, the numbers of viable cells were determined by
2-(4-iodophenyl)-3-(4-nitrophenyl)-5-(2,4-disulfophenyl)-2H-tetrazolium, monosodium salt (WST-1) assay.
A solution of 1-methoxy-5-methylphenazinium methyl sulfate (1-methoxy PMS) and WST-1 in the growth
medium (1-methoxy PMS 0.70 mg/mL in Milli-Q/WST-1 3.6 mg/mL in pH 7.4 HEPES buffer = 1/9) was
added to each well of the plate (10.0 µL/well). The plate was incubated for 4 h under atmosphere of 5% CO2
at 37 °C. The absorbance of each well at 415 nm was measured using a Benchmark microplate reader
(Bio-Rad). The cytotoxicities were evaluated as cell viability (%). […]

SMILES	antibacterial activity [1]	H+/Na+ transport activity normalized against the value of 1 (1.00) [2]	cell viability/% [3]
CC(C)C[C@@H](NC(=O)[C@H](Cc1c[nH]c2ccccc12)NC(=O)[C@@H](CC(C)C)NC(=O)[C@@H](NC(=O)[C@H](NC(=O)[C@H](C)NC(=O)[C@H](NC(=O)[C@H](C)NC(=O)CNC(=O)[C@@H](NC=O)C(C)C)[C@H](C)O)C(C)C)C(C)C)C(=O)N[C@@H](Cc1c[nH]c2ccccc12)C(=O)N[C@H](CC(C)C)C(=O)N[C@@H](Cc1c[nH]c2ccccc12)C(=O)N[C@@H](C(=O)N[C@@H](Cc1c[nH]c2ccccc12)C(=O)NCCO)C(C)C [compound 94] (For-VGA[dT]A[dV]V[dL]W[dL]W[dL]W[dV]W-NHCH2CH2OH)	-	1.16	100.0%
CC(C)C[C@@H](NC(=O)[C@H](Cc1c[nH]c2ccccc12)NC(=O)[C@H](NC(=O)[C@H](Cc1c[nH]c2ccccc12)NC(=O)[C@H](NC(=O)[C@H](Cc1c[nH]c2ccccc12)NC(=O)[C@@H](CC(C)C)NC(=O)[C@@H](NC(=O)[C@H](NC(=O)[C@H](C)NC(=O)[C@H](NC(=O)[C@H](C)NC(=O)CNC(=O)[C@@H](NC=O)C(C)C)C(C)C)C(C)C)C(C)C)C(C)C)C(C)C)C(=O)N[C@@H](Cc1c[nH]c2ccccc12)C(=O)NCCO [compound 97] (For-VGA[dV]A[dV]V[dL]W[dV]W[dV]W[dL]W-NHCH2CH2OH)	+	1.24	59.7%
CNC(=O)C[C@@H](NC(=O)[C@@H](NC(=O)[C@@H](CC(C)C)NC(=O)[C@H](C)NC(=O)[C@@H](CC(C)C)NC(=O)[C@H](C)NC(=O)CNC(=O)[C@@H](NC=O)C(C)C)C(C)C)C(=O)N[C@@H](Cc1c[nH]c2ccccc12)C(=O)N[C@H](CC(C)C)C(=O)N[C@@H](Cc1c[nH]c2ccccc12)C(=O)N[C@@H](C(=O)N[C@@H](Cc1c[nH]c2ccccc12)C(=O)N[C@H](CC(C)C)C(=O)N[C@@H](Cc1c[nH]c2ccccc12)C(=O)NCCO)C(C)C [compound 173] (For-VGA[dL]A[dL]V[dD](NHMe)W[dL]W[dV]W[dL]W-NHCH2CH2OH)	-	1.07	100.0%
CC(C)C[C@@H](NC(=O)[C@H](Cc1c[nH]c2ccccc12)NC(=O)[C@H](NC(=O)[C@H](Cc1c[nH]c2ccccc12)NC(=O)[C@@H](CC(C)C)NC(=O)[C@@H](NC(=O)[C@H](NC(=O)[C@H](C)NC(=O)[C@H](NC(=O)[C@H](C)NC(=O)CNC(=O)[C@@H](NC=O)C(C)C)[C@H](C)O)C(C)C)C(C)C)C(C)C)C(=O)N[C@@H](Cc1c[nH]c2ccccc12)C(=O)N[C@@H](C(=O)N[C@@H](Cc1c[nH]c2ccccc12)C(=O)NCCO)C(C)C [compound 182] (For-VGA[dT]A[dV]V[dL]W[dV]W[dL]W[dV]W-NHCH2CH2OH)	-	1.16	100.0%
CNC(=O)C[C@@H](NC(=O)[C@@H](NC(=O)[C@H](NC(=O)[C@H](C)NC(=O)[C@H](NC(=O)[C@H](C)NC(=O)CNC(=O)[C@@H](NC=O)C(C)C)C(C)C)C(C)C)C(C)C)C(=O)N[C@@H](Cc1c[nH]c2ccccc12)C(=O)N[C@H](CC(C)C)C(=O)N[C@@H](Cc1c[nH]c2ccccc12)C(=O)N[C@H](CC(C)C)C(=O)N[C@@H](Cc1c[nH]c2ccccc12)C(=O)N[C@@H](C(=O)N[C@@H](Cc1c[nH]c2ccccc12)C(=O)NCCO)C(C)C [compound 231] (For-VGA[dV]A[dV]V[dD](NHMe)W[dL]W[dL]W[dV]W-NHCH2CH2OH)	-	1.14	100.0%
CC(C)C[C@@H](NC(=O)[C@H](C)NC(=O)[C@H](NC(=O)[C@H](C)NC(=O)CNC(=O)[C@@H](NC=O)C(C)C)[C@H](C)O)C(=O)N[C@H](C(=O)N[C@H](CC(C)C)C(=O)N[C@@H](Cc1c[nH]c2ccccc12)C(=O)N[C@@H](C(=O)N[C@@H](Cc1c[nH]c2ccccc12)C(=O)N[C@H](CC(C)C)C(=O)N[C@@H](Cc1c[nH]c2ccccc12)C(=O)N[C@@H](C(=O)N[C@@H](Cc1c[nH]c2ccccc12)C(=O)NCCO)C(C)C)[C@H](C)O)C(C)C [compound 367] (For-VGA[dT]A[dL]V[dL]W[dT]W[dL]W[dV]W-NHCH2CH2OH)	-	1.24	100.0%
CC(C)C[C@@H](NC(=O)[C@H](Cc1c[nH]c2ccccc12)NC(=O)[C@H](NC(=O)[C@H](Cc1c[nH]c2ccccc12)NC(=O)[C@H](NC(=O)[C@H](Cc1c[nH]c2ccccc12)NC(=O)[C@H](NC(=O)[C@@H](NC(=O)[C@H](NC(=O)[C@H](C)NC(=O)[C@H](NC(=O)[C@H](C)NC(=O)CNC(=O)[C@@H](NC=O)C(C)C)C(C)C)[C@H](C)O)C(C)C)C(C)C)C(C)C)C(C)C)C(=O)N[C@@H](Cc1c[nH]c2ccccc12)C(=O)NCCO [compound 379] (For-VGA[dV]A[dT]V[dV]W[dV]W[dV]W[dL]W-NHCH2CH2OH)	-	1.19	100.0%
CC(C)C[C@@H](NC(=O)[C@H](Cc1c[nH]c2ccccc12)NC(=O)[C@H](NC(=O)[C@H](Cc1c[nH]c2ccccc12)NC(=O)[C@H](NC(=O)[C@H](Cc1c[nH]c2ccccc12)NC(=O)[C@@H](CC(C)C)NC(=O)[C@@H](NC(=O)[C@H](NC(=O)[C@H](C)NC(=O)[C@H](NC(=O)[C@H](C)NC(=O)CNC(=O)[C@@H](NC=O)C(C)C)C(C)C)C(C)C)C(C)C)C(C)C)C(C)C)C(=O)N[C@@H](Cc1c[nH]c2ccccc12)C(=O)NCCO [compound 448] (For-VGA[dV]A[dV]V[dL]W[dV]W[dV]W[dL]W-NHCH2CH2OH)	+	1.07	34.1%
CC(C)C[C@@H](NC(=O)[C@H](Cc1c[nH]c2ccccc12)NC(=O)[C@H](NC(=O)[C@H](Cc1c[nH]c2ccccc12)NC(=O)[C@@H](CC(C)C)NC(=O)[C@H](Cc1c[nH]c2ccccc12)NC(=O)[C@@H](CC(C)C)NC(=O)[C@@H](NC(=O)[C@H](NC(=O)[C@H](C)NC(=O)[C@H](NC(=O)[C@H](C)NC(=O)CNC(=O)[C@@H](NC=O)C(C)C)C(C)C)C(C)C)C(C)C)[C@H](C)O)C(=O)N[C@@H](Cc1c[nH]c2ccccc12)C(=O)NCCO [compound 457] (For-VGA[dV]A[dV]V[dL]W[dL]W[dT]W[dL]W-NHCH2CH2OH)	+	1.08	95.8%
CC(C)C[C@@H](NC(=O)[C@H](C)NC(=O)[C@H](NC(=O)[C@H](C)NC(=O)CNC(=O)[C@@H](NC=O)C(C)C)[C@H](C)O)C(=O)N[C@H](C(=O)N[C@H](CC(C)C)C(=O)N[C@@H](Cc1c[nH]c2ccccc12)C(=O)N[C@H](CC(C)C)C(=O)N[C@@H](Cc1c[nH]c2ccccc12)C(=O)N[C@@H](C(=O)N[C@@H](Cc1c[nH]c2ccccc12)C(=O)N[C@@H](C(=O)N[C@@H](Cc1c[nH]c2ccccc12)C(=O)NCCO)C(C)C)C(C)C)C(C)C [compound 569] (For-VGA[dT]A[dL]V[dL]W[dL]W[dV]W[dV]W-NHCH2CH2OH)	-	1.01	100.0%
